Results: patent publication US20210198277A1, “AMINE-SUBSTITUTED ARYL OR HETEROARYL COMPOUNDS” (Epizyme, Inc., priority 2016, published 2021)

molecular target: T1, EHMT2 (Homo sapiens, UniProt Q96KQ7); test: MDA-MB-231 H3K9me2 in-cell Western assay (EHMT2 ICW); format: cell-based; conditions: Table III; MDA-MB-231 H3K9me2 in-cell Western; read-out: EHMT2 ICW (IC50 μM)
T1 construct: host or cells: MDA-MB-231
T1 sequence (Q96KQ7 1-1210): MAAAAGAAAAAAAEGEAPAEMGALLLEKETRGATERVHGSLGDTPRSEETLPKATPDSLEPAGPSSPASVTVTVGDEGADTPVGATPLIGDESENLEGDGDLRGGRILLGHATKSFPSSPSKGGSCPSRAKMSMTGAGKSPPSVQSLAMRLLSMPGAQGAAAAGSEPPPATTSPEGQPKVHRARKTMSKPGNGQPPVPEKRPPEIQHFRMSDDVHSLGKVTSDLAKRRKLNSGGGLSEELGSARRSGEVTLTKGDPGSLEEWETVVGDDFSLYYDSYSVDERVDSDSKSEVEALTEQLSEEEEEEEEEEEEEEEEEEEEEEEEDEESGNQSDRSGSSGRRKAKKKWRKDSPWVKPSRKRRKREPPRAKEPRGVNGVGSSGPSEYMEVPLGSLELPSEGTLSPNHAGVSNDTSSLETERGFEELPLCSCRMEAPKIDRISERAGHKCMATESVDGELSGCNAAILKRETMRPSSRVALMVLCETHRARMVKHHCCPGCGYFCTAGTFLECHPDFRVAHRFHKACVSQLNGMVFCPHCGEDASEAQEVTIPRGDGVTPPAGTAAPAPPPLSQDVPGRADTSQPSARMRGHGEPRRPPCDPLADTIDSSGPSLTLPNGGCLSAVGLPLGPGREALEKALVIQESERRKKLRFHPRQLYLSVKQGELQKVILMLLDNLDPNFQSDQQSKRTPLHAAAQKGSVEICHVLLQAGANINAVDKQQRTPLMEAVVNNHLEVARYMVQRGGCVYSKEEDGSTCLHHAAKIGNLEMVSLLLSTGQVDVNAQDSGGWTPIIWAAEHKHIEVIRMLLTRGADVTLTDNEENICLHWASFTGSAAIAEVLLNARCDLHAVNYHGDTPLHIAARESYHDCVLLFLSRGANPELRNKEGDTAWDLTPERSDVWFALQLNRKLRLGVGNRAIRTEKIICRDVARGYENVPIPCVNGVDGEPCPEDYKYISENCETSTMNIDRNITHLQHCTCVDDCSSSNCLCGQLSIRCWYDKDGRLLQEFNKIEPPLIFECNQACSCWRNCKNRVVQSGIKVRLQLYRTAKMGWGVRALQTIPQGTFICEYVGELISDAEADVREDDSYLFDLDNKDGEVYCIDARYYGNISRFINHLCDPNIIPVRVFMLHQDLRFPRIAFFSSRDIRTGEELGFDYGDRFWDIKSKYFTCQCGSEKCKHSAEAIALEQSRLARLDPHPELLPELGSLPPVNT
Outline: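 Cells seeded at 3,000/well onto pre-dispensed compound; 30 min RT, then 48 h 37 °C/5% CO2. PFA fix, block, α-H3K9me2 1:800 o/n 4 °C, 800CW secondary + DRAQ5. Odyssey scan 700/800 nm; ratio → % inhibition → 4-parameter IC50.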

Row | IC50 [µM] | SMILES
1 | > 10 | COc1ccc(Nc2cccc3cn(C)nc23)cc1OCCCN1CCCC1 [Compound 346]
2 | > 10 | COc1ccc(Nc2ccc3ncc(C)n3n2)cc1OCCCN1CCCC1 [Compound 347]
3 | > 10 | COc1ccc(Nc2nccc(-c3cnn(C)c3)n2)cc1OCCCN1CCCC1 [Compound 348]
4 | 1 to 10 | COc1ccc(Nc2nccc(Nc3cccc(F)c3)n2)cc1OCCCN1CCCC1 [Compound 349]
5 | 1 to 10 | COc1ccc(Nc2nccc(NCC3CCOCC3)n2)cc1NCCCN1CCCC1 [Compound 350]
6 | > 10 | COc1ccc(OCCCN2CCCC2)cc1Nc1nccc(NCC2CCOCC2)n1 [Compound 351]
7 | > 10 | COc1ccc(NCCCN2CCCC2)cc1Nc1nccc(NCC2CCOCC2)n1 [Compound 352]
8 | 1 to 10 | CNc1ccnc(Nc2ccc(OC)c(OCCCN3CC[C@@H](F)C3)c2)n1 [Compound 353]
9 | 1 to 10 | CNc1ccnc(Nc2ccc(OC)c(OCCCN3CC(F)C3)c2)n1 [Compound 354]

The next lines start with the molecule.

Row | SMILES | IC50 [µM]
10 | CNc1cc(C)nc(Nc2ccc(OC)c(O[C@H]3C[C@H](N(C)C)C3)c2)n1 (single isomer, unassigned) [Compound 329, N^2-(3-((1r,3r)-3-(dimethylamino)cyclobutoxy)-4-methoxyphenyl)-N^4,6-dimethylpyrimidine-2,4-diamine] | > 10
11 | COc1ccc(Nc2ccc3cnn(C)c3n2)cc1OCCCN1CCCC1 [Compound 257, N-(4-methoxy-3-(3-(pyrrolidin-1-yl)propoxy)phenyl)-1-methyl-1H-pyrazolo[3,4-b]pyridin-6-amine] | > 10
12 | COc1ccc(Nc2cc3c(cn2)ncn3C)cc1OCCCN1CCCC1 [Compound 258, N-(4-methoxy-3-(3-(pyrrolidin-1-yl)propoxy)phenyl)-1-methyl-1H-imidazo[4,5-c]pyridin-6-amine] | > 10
13 | COc1ccc(Nc2nccc(NCC3CCOCC3)n2)cc1OC1CCC2(CC1)CCN(C)C2 (stereo not shown) [Compound 259, N^2-(4-methoxy-3-((2-methyl-2-azaspiro[4.5]decan-8-yl)oxy)phenyl)-N^4-((tetrahydro-2H-pyran-4-yl)methyl)pyrimidine-2,4-diamine] | > 10
14 | COc1ccc(Nc2nccc(NCC3CCOCC3)n2)cc1OC1CCC2(CC1)CN(C)C2 [Compound 260, N^2-(4-methoxy-3-((2-methyl-2-azaspiro[3.5]nonan-7-yl)oxy)phenyl)-N^4-((tetrahydro-2H-pyran-4-yl)methyl)pyrimidine-2,4-diamine] | > 10
15 | CNc1cnnc(Nc2cc(OCCCN3CCCC3)c(OC)cn2)c1 [Compound 322, N^3-(5-methoxy-4-(3-(pyrrolidin-1-yl)propoxy)pyridin-2-yl)-N^5-methylpyridazine-3,5-diamine] | 0.1 to 1
16 | CNc1cc(Nc2cc(OCCCN3CCCC3)c(OC)cn2)cnn1 [Compound 323, N^5-(5-methoxy-4-(3-(pyrrolidin-1-yl)propoxy)pyridin-2-yl)-N^3-methylpyridazine-3,5-diamine] | > 10
17 | CNc1cc(Nc2cc(OCCCN3CCCC3)c(OC)cn2)ncn1 [Compound 324, N^4-(5-methoxy-4-(3-(pyrrolidin-1-yl)propoxy)pyridin-2-yl)-N^6-methylpyrimidine-4,6-diamine] | > 10
18 | CNc1cc(Nc2cc(OCCCN3CCCC3)c(OC)cn2)nc(C)n1 [Compound 325, N^4-(5-methoxy-4-(3-(pyrrolidin-1-yl)propoxy)pyridin-2-yl)-N^6,2-dimethylpyrimidine-4,6-diamine] | 1 to 10
19 | COc1cnc(Nc2nc(C)nc3[nH]ccc23)cc1OCCCN1CCCC1 [Compound 326, N-(5-methoxy-4-(3-(pyrrolidin-1-yl)propoxy)pyridin-2-yl)-2-methyl-7H-pyrrolo[2,3-d]pyrimidin-4-amine] | 1 to 10
20 | CNc1nc(Nc2ccc(OC)c(OCCCN3CCCC3)c2)nc2c1CCC2 [Compound 328, N^2-(4-methoxy-3-(3-(pyrrolidin-1-yl)propoxy)phenyl)-N^4-methyl-6,7-dihydro-5H-cyclopenta[d]pyrimidine-2,4-diamine] | 1 to 10
21 | CNc1cc(C)nc(Nc2ccc(OC)c(OC[C@H]3C[C@H](N(C)C)C3)c2)n1 [Compound 330] | > 10
22 | CNc1cc(C)nc(Nc2ccc(OC)c(O[C@H]3C[C@H](CN(C)C)C3)c2)n1 [Compound 331, N^2-(3-((1r,3r)-3-((dimethylamino)methyl)cyclobutoxy)-4-methoxyphenyl)-N^4,6-dimethylpyrimidine-2,4-diamine] | > 10
23 | CNc1cc(C)nc(Nc2cnc(OC)c(OCCCN3CCCC3)c2)n1 [Compound 332, N^2-(6-methoxy-5-(3-(pyrrolidin-1-yl)propoxy)pyridin-3-yl)-N^4,6-dimethylpyrimidine-2,4-diamine] | 0.1 to 1
24 | CCn1nc(Nc2nccc3[nH]ccc23)cc1COCCN1CCCC1 [Compound 333] | > 10
25 | COc1cnc(Nc2ccnc3[nH]ccc23)cc1OCCCN1CCCC1 [Compound 335, N-(5-methoxy-4-(3-(pyrrolidin-1-yl)propoxy)pyridine-2-yl)-1H-pyrrolo[2,3-b]pyridin-4-amine] | 1 to 10
26 | COc1cnc(Nc2cc(C)nc3[nH]ccc23)cc1OCCCN1CCCC1 [Compound 336, N-(5-methoxy-4-(3-(pyrrolidin-1-yl)propoxy)pyridin-2-yl)-6-methyl-1H-pyrrolo[2,3-b]pyridin-4-amine] | 1 to 10
27 | COc1ccc(Nc2nc(C)c(F)c(NC(C)C)n2)cc1OCCCN1CCCC1 [Compound 337] | 1 to 10
28 | COc1ccc(Nc2nccc(-n3nc(C)cc3C)n2)cc1OCCCN1CCCC1 [Compound 338] | > 10
29 | CNCc1cnc(Nc2ccc(OC)c(OCCCN3CCCC3)c2)nc1 [Compound 339] | > 10
30 | COc1ccc(Nc2ccnc(NCC3CCN(C(C)=O)CC3)n2)cc1OCCCN1CCCC1 [Compound 340] | > 10
31 | COc1ccc(Nc2ccc3cnn(C)c3c2)cc1OCCCN1CCCC1 [Compound 341] | > 10
32 | COc1ccc(Nc2ccc3ncn(C)c3n2)cc1OCCCN1CCCC1 [Compound 342] | > 10
33 | COc1ccc(Nc2ncc3ncn(C)c3n2)cc1OCCCN1CCCC1 [Compound 343] | > 10
34 | COc1ccc(Nc2cccc3ncnn23)cc1OCCCN1CCCC1 [Compound 344] | > 10
35 | COc1ccc(Nc2ccc3nn(C)cc3c2)cc1OCCCN1CCCC1 [Compound 345] | > 10

same assay, conditions: Table VI; read-out: EHMT2 ICW IC50

Row | IC50 [µM] | SMILES
36 | 1 to 10 | CNc1cc2nccn2c(Nc2cc(OCCCN3CCCC3)c(OC)cn2)n1 [Compound 611]
37 | 1 to 10 | CCN1CC(COc2cc(Nc3nc(C)cc4[nH]ccc34)ncc2OC)C1 [Compound 613]
38 | 1 to 10 | CNc1cc(C)nc(Nc2cc(OCCCN3CCCC3)c3nc(C)cn3c2)n1 [Compound 616]
39 | > 10 | CNc1cc(C)nc(Nc2cc(OCCCN3CCCC3)c3nccn3c2)n1 [Compound 618]
40 | 1 to 10 | COc1cc2c(C3CCN(C)CC3)cc(C#N)nc2cc1OCCCN1CCCC1 [Compound 790]
41 | > 10 | CNc1cc(C)nc(Nc2cc(OCCCN3CCCC3)c3oncc3c2)n1 [Compound 793]
42 | > 10 | COc1ccc(Nc2nn(C)c3cnccc23)cc1OCCCN1CCCC1 [Compound 794]
43 | > 10 | COc1cnc(Nc2nn(C)c3cnccc23)cc1OCCCN1CCCC1 [Compound 795]
44 | > 10 | COc1ccc(Nc2cc(C)[nH]n2)cc1OCCCN1CCCC1 [Compound 796]
45 | > 10 | COc1ccc(Nc2cc(C)n(C)n2)cc1OCCCN1CCCC1 [Compound 797]
46 | 0.1 to 1 | CNc1cc(C)nc(Nc2cnc(OC)c(OC[C@@H]3CCN(C4CCC4)C3)c2)n1 [Compound 798]
47 | 0.1 to 1 | COc1ccc(Nc2nc(C)cc(NC(C)C)n2)cc1OC[C@@H]1CCNC1 [Compound 800]
48 | > 10 | COc1cnc(Nc2nccc3nccn23)cc1OC[C@@H]1CCNC1 [Compound 801]
49 | 1 to 10 | CNc1cc(C2CCOCC2)c2cc(OC)c(OC[C@@H]3CCNC3)cc2n1 [Compound 802]
50 | 1 to 10 | CNc1cc(C2CCOCC2)c2cc(OC)c(OC[C@@H]3CCN(C)C3)cc2n1 [Compound 803]
51 | > 10 | COc1cc(NC2CCOCC2)ncc1OCC1CCNC1 (stereo not shown) [Compound 806]
52 | > 10 | COc1cc(N(C)C2CCOCC2)ncc1OCC1CCNC1 (stereo not shown) [Compound 808]
